Data from patent US10624871B2, “Bismuth(III) compounds and methods thereof” (priority 2016, dated 2020).

Experiments:
[1] = target: VIM-2 (Escherichia coli, UniProt Q5U7L7); experiment: IC50 enzyme inhibition assay, MER hydrolysis; format: biochemical; details: Zn2-VIM-2, 1 h preincubation at 25° C., 100 μM MER
From the text: (§1) […]. The initial rate were extracted and calculated from each reaction curves.

[2] = target: T1, NDM-1 (Klebsiella pneumoniae, UniProt C7C422); experiment: IC50 enzyme inhibition assay, MER hydrolysis; format: biochemical; details: Zn2-NDM-1 50 nM, 1 h preincubation at 25° C., 100 μM MER
T1 sequence (C7C422 whole entry, looked up): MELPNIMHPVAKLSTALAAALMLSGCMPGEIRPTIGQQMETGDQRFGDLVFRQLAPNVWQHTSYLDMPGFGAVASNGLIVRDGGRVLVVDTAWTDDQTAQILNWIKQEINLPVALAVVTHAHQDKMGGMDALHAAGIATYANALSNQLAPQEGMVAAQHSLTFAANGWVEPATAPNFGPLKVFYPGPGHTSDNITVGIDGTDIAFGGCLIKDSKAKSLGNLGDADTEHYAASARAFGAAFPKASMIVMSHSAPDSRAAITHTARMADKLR
From the text: as §1

[3] = test system: K. pneumonia (NDM-1+); experiment: Microdilution MIC and MBC assay, FICI; format: cell-based; details: Bi(III) compound at 32 μg mL^−1, K. pneumonia (NDM-1+)
[4] = test system: E. coli (NDM-1+); experiment: Microdilution MIC and MBC assay, checkerboard FICI; format: cell-based; details: Bi(III) compound at 32 μg mL^−1, E. coli (NDM-1+)
[5] = target: T1, NDM-1; experiment: Zn(II) displacement by Bi(III) using ICP-MS; format: binding; details: Zn2-NDM-1 20 μM incubated with CBS, 25° C., 5 hrs
Method: To monitor the replacement of Zn(II) by Bi(III), inductively-coupled plasma mass spectrometry (ICP-MS) was employed to accurately quantify ^209Bi and ^66Zn contents in various purified NDM-1 samples. Purified Zn2-NDM-1 was prepared as described previously and was dissolved in trace-metal-free ICP-MS buffer containing 50 mM HEPES, pH 7.0 through cycles of buffer washing using an Amicon Ultra-15 Centrifugal Filter Devices with 3 kDa cut-off. Zn2-NDM-1 (20 μM) was incubated with various concentrations of CBS at 25° C. for 5 hrs with mild shaking. The samples were subsequently dialyzed in ICP-MS buffer to remove unbound-metal ions and were acidified with 10% (v/v) nitric acid for 1 h with gentle heating for releasing the bound metal ions from the protein for ICP analysis. The samples were then mixed with 115In as an internal standard to reach a final concentration of 10 ppb in 1% HNO3. After calibration with the isotope standards ^209Bi, ^66Zn and ^34S from Sigma, the samples were subsequently injected into a quadrupole-based inductively coupled plasma mass spectrometer (Agilent 7500a, Agilent Technologies, CA, USA). ^209Bi, ^66Zn and ^34S isotopes abundances were determined simultaneously by integration of peak areas using the build-in software from the instrument so that ^34S abundance serves as a way for quantifying protein concentration in each sample.

[6] = test system: C. freundii (NDM-1+); experiment: Microdilution MIC and MBC assay, FICI; format: cell-based; details: Bi(III) compound at 32 μg mL^−1, C. feudii (NDM-1+)
[7] = test system: E. coli (IMP-4+); experiment: Microdilution MIC and MBC assay, FICI; format: cell-based; details: Bi(III) compound at 32 μg mL−1, E. coli (IMP-4+)
[8] = test system: E. coli (NDM-1+); experiment: Time kill assay; format: cell-based; details: combination 16 μg mL^−1 MER and 32 μg mL−1 CBS, endpoint 24 hrs
Method: Time kill assay was used to further explore the synergy between MER and Bi(III) compounds which were represented by CBS herein. In a typical assay, the concentrations of the compounds used in this test represent as follows: 16 μg mL^−1 MER, 32 μg mL−1 CBS. Bacteria were cultured for overnight and diluted 1:250 into LB broth at 37° C. for 3 hrs to reach log phase. The initial bacterial concentration was adjusted to ˜10^7 CFU mL^−1 according to standard curve. Tested compounds either alone or in combination was added to 20 mL of freshly prepared bacterial solution in a 50 ml tube, and incubate at 37° C. LB broth with no compounds served as a positive control. Aliquots of […] suspension were withdrawn after different time intervals (0, 1, 2, 4, 6, 8, and 24 hrs). Bacterial concentrations were estimated from colony counts by serial dilution in phosphate-buffered saline (PBS) and plating on LB agar. All assays were triplicated and performed three times in different days. Data from three independent experiments were averaged and plotted as log10 CFU mL^−1 versus time (h) for each time point over 24 hrs as shown in FIG. 12.

[9] = test system: E. coli cells (NDM+); experiment: Resistance study, mutation frequency and MPC; format: cell-based
From the text: Given the very notion of MIC, all susceptible bacterial cells will be suppressed or killed by a dose above it. However, bacterial population is often large; an infection will likely contain first-step mutants with lowed susceptibility. Thus, the dose of compounds at MIC will adversely amplify the population of those less-susceptible mutants.^26 Thus mutant prevention concentration (MPC), defined as a compound concentration that suppresses the growth of first-step resistant mutant in large quantity of susceptible bacterial population, together with mutant prevention index (MPI=MPC/MIC), is introduced to estimate the mutant prevention ability of exemplary compound combination.
For a typical test, E. coli cells (NDM^+) at 1˜2×10^10 CFU were spread onto LB agar containing combinations of MER and CBS at identical concentrations. All the plates were incubated at 37° C. Upon incubation for 48 hrs, up to 4 colonies were picked and re-cultured from any plates with observable colonies, followed by the measurement of their MIC values. Any MICs of MER that were higher than the original values (16 μg mL^−1) were determined as mutant colony. The concentration that restricted the growth of mutant colonies was determined as MPC.

[10] = target: T1, NDM-1; experiment: Zn(II) supplementation assay; format: biochemical; details: Bi-NDM-1 from apo-NDM-1 and CBS; ZnSO4 up to 2 molar equivalents; apo-NDM-1 + 2 eq Zn = 1
Method: To investigate whether enzyme inhibition can be reversed, enzyme activities of apo-NDM-1 and Bi-NDM-1 were compared with the supplementation of Zn(II). Bi-NDM-1 (50 nM) was prepared by pre-incubation of apo-NDM-1 with CBS for 2 h at 25° C. and the bound Bi was verified using ICP-MS. The above protein solutions were mixed with ZnSO4 at concentration up to 2 molar equivalents to NDM-1 and 100 μM MER. The change in absorbance at 300 nm was monitored in a 1 cm quartz cuvette using Varian Cary® 50 UV-visible spectrophotometer at 25° C. for reaction rate calculations. Reaction rate of apo-NDM-1 with addition of 2 molar equivalents of ZnSO4 was normalized to be 1. […]. […] To confirm this, the metal contents of both Zn(II) and Bi(III) were monitored by inductively-coupled plasma mass spectrometry (ICP-MS) as described below.

SMILES: O=C([O-])CC([O-])(CC(=O)[O-])C(=O)[O-].O=C([O-])CC([O-])(CC(=O)[O-])C(=O)[O-].[Bi+3].[Bi+3].[K+] [Complex 10, colloidal bismuth subcitrate]
- IC50 [1]: 44.5 ± 3.94 µM
- IC50 [2]: 5.83 ± 0.53 µM
- MBC of MER with Bi(III) compound [3]: 8 µg/mL
- MIC of MER with Bi(III) compound [3]: 4 µg/mL
- MBC of MER with Bi(III) compound [4]: 4 µg/mL
- MIC of MER with Bi(III) compound [4]: 2 µg/mL
- Bi(III) bound to NDM-1 [5]: 0.96 equivalent
- Zn(II) replaced from NDM-1 [5]: 2.13 molar equivalents
- MBC of MER with Bi(III) compound [6]: 1 µg/mL
- MIC of MER with Bi(III) compound [6]: 0.5 µg/mL
- MBC of MER with Bi(III) compound [7]: 8 µg/mL
- MIC of MER with Bi(III) compound [7]: 4 µg/mL
- lowering of bacteria density versus single components [8]: more than 1000 fold
- mutation frequency ([9]; MER with CBS at 32, MIC multiple 0.5): >5.22 × 10^−8
- mutation frequency ([9]; MER with CBS at 32, MIC multiple 1): 4.10 × 10^−8
- mutation frequency ([9]; MER with CBS at 32, MIC multiple 2): 3.28 × 10^−9
- mutation frequency ([9]; MER with CBS at 64, MIC multiple 0.5): 1.23 × 10^−8
- mutation frequency ([9]; MER with CBS at 64, MIC multiple 1): 1.15 × 10^−9
- mutation frequency ([9]; MER with CBS at 128, MIC multiple 0.5): 9.84 × 10^−10
- mutation frequency ([9]; MER with CBS at 256, MIC multiple 0.5): 1.31 × 10^−9
- enzyme activity restored upon supplementation of Zn(II) to Bi-NDM-1 [10]: 25%
